Measured values: US20170044121A1, “TETRA-O-SUBSTITUTED BUTANE-BRIDGE MODIFIED NDGA DERIVATIVES, THEIR SYNTHESIS AND PHARMAECUTICAL USE” (Erimos Pharmaceuticals LLC, priority 2006, published 2017)
Structures can show the parent of a compound that is named as a salt. Where two headings read alike, the source gives them in different places.

Tests used:
MCP-1 = MCP-1 protein production in TNF-α-treated primary human keratinocytes; type: cell-based; details: Keratinocyte, read-out: MCP-1 IC50
[1] = tested on: TAT transactivation of the HIV-1 LTR promoter (TAT-TRS); test: cells; type: cell-based; details: Human immunodeficiency virus 1, COS-7, 48 h, read-out: SEAP EC50
COS-7 cells = test: MTT cytotoxicity in COS-7 cells (run with SEAP); type: cell-based, green monkey; details: Chlorocebus sabaeus
A549 (lung carcinoma) = test: MTS cell viability assay, A549; type: cell-based
[2] = tested on: HeLa (cervical adenocarcinoma); test: MTS cell viability assay, HeLa; type: cell-based; details: read-out: HeLa IC50
[3] = tested on: H-69 small cell lung cancer cells; details: cited from earlier work
[4] = tested on: Melanoma cell line panel (8 cell lines); test: cells; details: Homo sapiens, 48 h, read-out: LC50
[5] = tested on: Prostate cell line panel (1 cell line); details: Prostate (1 cell line), 48 hours, SRB
[6] = tested on: Breast Cancer cell line panel (8 cell lines); test: cells; details: Homo sapiens, 48 h, read-out: LC50
[7] = tested on: Melanoma cell line panel (8 cell lines); details: Melanoma (8 cell lines), 48 hours, SRB
[8] = tested on: Renal Cancer cell line panel (8 cell lines); test: cells; details: Homo sapiens, 48 h, read-out: LC50
[9] = tested on: Leukemia cell line panel (6 cell lines); test: cells; details: Homo sapiens, 48 h, read-out: LC50
[10] = tested on: Colon Cancer cell line panel (6 cell lines); details: Colon Cancer (6 cell lines), 48 hours, SRB
VEGF = test: ELISA VEGF assay (DFO-induced hypoxia); type: cell-based; details: Homo sapiens, read-out: VEGF IC50
[11] = tested on: Breast Cancer cell line panel (8 cell lines); details: Breast Cancer (8 cell lines), 48 hours, SRB
[12] = tested on: NSCLC cell line panel (9 cell lines); details: NSCLC (9 cell lines), 48 hours, SRB
[13] = tested on: Leukemia cell line panel (6 cell lines); details: Leukemia (6 cell lines), 48 hours, SRB
[14] = tested on: NSCLC cell line panel (9 cell lines); test: cells; details: Homo sapiens, 48 h, read-out: LC50
[15] = tested on: Prostate cell line panel (1 cell line); test: cells; details: Homo sapiens, 48 h, read-out: LC50
in vitro [16] = details: human; for Papp A→B at 90 min, 50 μM: Caco-2, pH 7.4, Papp mean A to B
Caco-2 cell monolayers [17] = details: for Mass balance mean A to B: 50 μM
[18] = Non-specific binding to 24-well assay plate without cells; details: single well of a 24-well assay plate without cells
[19] = tested on: Colon Cancer cell line panel (6 cell lines); test: cells; details: Homo sapiens, 48 h, read-out: LC50
[20] = tested on: Renal Cancer cell line panel (8 cell lines); details: Renal Cancer (8 cell lines), 48 hours, SRB
[21] = tested on: Ovarian Cancer cell line panel (6 cell lines); test: cells; details: Homo sapiens, 48 h, read-out: LC50
[22] = tested on: Ovarian Cancer cell line panel (6 cell lines); details: Ovarian Cancer (6 cell lines), 48 hours, SRB
[23] = tested on: apoptosis in cultured cells (DNA fragmentation); test: TiterTACS DNA fragmentation apoptosis assay; type: cell-based; details: TiterTACS apoptosis detection
[24] = tested on: CNS cell line panel (5 cell lines); details: CNS (5 cell lines), 48 hours, SRB
[25] = tested on: CNS cell line panel (5 cell lines); test: cells; details: Homo sapiens, 48 h, read-out: LC50
in vitro [26] = test: in vitro
[27] = Caco-2 monolayer permeability study; details: human
Caco-2 cell monolayers [28] = test: Caco-2 monolayer permeability study
survivin = test: ELISA survivin assay (cell lysates); type: cell-based; details: Homo sapiens, survivin protein in cell lysates
[29] = cited from earlier work
Caco-2 cell monolayers [30] = details: Caco-2 test system, historical values; cited from earlier work
[31] = Homo sapiens, A549, read-out: A549 IC50
[32] = TNF-α-treated PHK, MCP-1 protein production, ELISA
[33] = MTT assay, COS-7 test cells of the SEAP assay, read-out: COS-7 IC50
[34] = human, Caco-2, 90 min, 1 μM, pH 7.4
[35] = Caco-2, nominal conc. 20 μM, 90 minutes, duplicate monolayers

`Cc1nc(COc2ccc(CCCCc3ccc(OCc4csc(C)n4)c(OCc4csc(C)n4)c3)cc2OCc2csc(C)n2)cs1` (as salt: hydrochloride) [Compound G, 1,4-bis{3,4-bis(2-methyl-thiazol-4-yl-methoxy)phenyl}-butane tetrakis-hydrochloride salt] showed a melting point of 96 to 98 °C.
`COc1ccc(CCCCc2ccc(OC)c(OC)c2)cc1OC` [Compound A, 1,4-bis-(3,4-methoxyphenyl) butane] gave an IC50 (MCP-1) of over 100 µM, an EC50 [1] of over 100 µM and an IC50 (COS-7 cells; COS-7, read-out: COS-7 IC50) of over 100 µM. It also gave an IC50 (A549 (lung carcinoma); [31]) of over 100 µM and an IC50 ([2]; Homo sapiens, HeLa) of over 100 µM.
In the case of `Oc1ccc(CCCCc2ccc(O)c(O)c2)cc1O` [Compound B, 1,4-bis-(3,4-hydroxyphenyl) butane], the melting point is listed as 140 to 142 °C and the “potency relative to NDGA as proliferative inhibitor” value [3] is listed as 10 times.
For `CCOc1ccc(CCCCc2ccc(OCC)c(OCC)c2)cc1OCC` [Compound C, 1,4-bis-(3,4-ethoxyphenyl) butane], the melting point was 113 to 115 °C, the IC50 (MCP-1; [32]) was over 100 µM and the EC50 [1] was over 100 µM. The IC50 (COS-7 cells; [33]) was over 100 µM, the IC50 (A549 (lung carcinoma); Homo sapiens, A549, MTS assay, read-out: A549 IC50) was over 100 µM and the IC50 ([2]; Homo sapiens, HeLa, MTS assay) was over 100 µM.
For `c1cc(OCCCN2CCCCC2)c(OCCCN2CCCCC2)cc1CCCCc1ccc(OCCCN2CCCCC2)c(OCCCN2CCCCC2)c1` [Compound D, 1,4-bis{3,4-bis[3-(piperidin-1-yl)propoxy]phenyl}-butane], the CC50 [4] was 15.9 µM, the IC50 (MCP-1; [32]) was 3 µM and the EC50 [1] was 0.7 to 0.8 µM. The “Mean Growth Percent at 10 μM” value ([5]; 10 μM) was 2.84%, the TGI [5] was 2.76E−5 and the CC50 [6] was 30.8 µM. For the same compound, the “Mean Growth Percent at 10 μM” value ([7]; 10 μM) was 16.46%, the TGI [7] was 7.74E−6 and the CC50 [8] was 37 µM. The CC50 [9] was 13.4 µM, the “Mean Growth Percent at 10 μM” value ([10]; 10 μM) was 40.49% and the TGI [10] was 6.45E−6. For the same compound, the IC50 (VEGF; VEGF released into media, ELISA) was about 4 µM, the “Mean Growth Percent at 10 μM” value ([11]; 10 μM) was 59.72% and the TGI [11] was 2.11E−5. For the same compound, the IC50 (COS-7 cells; [33]) was 0.8 to 0.9 µM, the “Mean Growth Percent at 10 μM” value ([12]; 10 μM) was 62.77% and the TGI [12] was 7.31E−6. The “Mean Growth Percent at 10 μM” value ([13]; 10 μM) was 12.31%, the TGI [13] was 4.28E−6 and the CC50 [14] was 28.4 µM. The CC50 [15] was 53.9 µM, the Papp A→B at 90 min, 1 μM (in vitro [16]; Caco-2, pH 7.4, Papp A to B) was 13.8 ×10⁻⁶ cm/s and the Papp B→A at 90 min, 1 μM (in vitro [16]; Caco-2, pH 7.4, Papp B to A) was 2.35 ×10⁻⁶ cm/s. The efflux ratio at 90 min, 1 μM (in vitro [16]; Caco-2, pH 7.4, Polarization Ratio [B-A/A-B]) was 0.1 to 0.2, the BCS permeability class (Caco-2 cell monolayers [17]; Caco-2) was “moderate-to-high” and the “Papp A to B” value (Caco-2 cell monolayers [17]; [34]) was 14 ×10⁻⁶ cm/s. For the same compound, the “Papp B to A” value (Caco-2 cell monolayers [17]; [34]) was 2.51 ×10⁻⁶ cm/s, the “Polarization Ratio [B-A/A-B]” value (Caco-2 cell monolayers [17]; [34]) was 0.18 and the recovery at 90 min, 1 μM [18] was 35%. For the same compound, the CC50 [19] was 22.8 µM, the “Mean Growth Percent at 10 μM” value ([20]; 10 μM) was 82.54% and the TGI [20] was 1.70E−5. For the same compound, the CC50 [21] was 35.3 µM, the “Mean Growth Percent at 10 μM” value ([22]; 10 μM) was 66.18% and the TGI [22] was 1.46E−5. For the same compound, the DNA fragmentation [23] was “Positive”, the IC50 (A549 (lung carcinoma); MTS assay, read-out: A549 IC50) was 1 to 2 µM and the “Mean Growth Percent at 10 μM” value ([24]; 10 μM) was 78.88%. For the same compound, the TGI [24] was 4.13E−6, the IC50 ([2]; Homo sapiens, HeLa, MTS assay) was 5 to 6 µM and the CC50 [25] was 11 µM.
In the case of `c1cc(OCCCN2CCCCC2)c(OCCCN2CCCCC2)cc1CCCCc1ccc(OCCCN2CCCCC2)c(OCCCN2CCCCC2)c1` [Compound E, 1,4-bis{3,4-bis[3-(piperidin-1-yl)propoxy]phenyl}-butane tetrakis-hydrochloride salt], the IC50 (A549 (lung carcinoma); MTS assay, read-out: A549 IC50) is reported as 9 µM and the IC50 ([2]; MTS assay) is reported as 5 to 10 µM.
In the case of `CN1CCN(CCOc2ccc(CCCCc3ccc(OCCN4CCN(C)CC4)c(OCCN4CCN(C)CC4)c3)cc2OCCN2CCN(C)CC2)CC1` [Compound F, 1,4-bis{3,4-bis[2-(1-methyl-piperazin-4-yl)-ethoxy]phenyl}-butane], the IC50 (A549 (lung carcinoma); [31]) is reported as over 100 µM and the IC50 ([2]; Homo sapiens, HeLa) is reported as over 100 µM.
Work on `Cc1nc(COc2ccc(CCCCc3ccc(OCc4csc(C)n4)c(OCc4csc(C)n4)c3)cc2OCc2csc(C)n2)cs1` [Compound G, 1,4-bis{3,4-bis(2-methyl-thiazol-4-yl-methoxy)phenyl}-butane tetrakis-hydrochloride salt] yielded an IC50 (A549 (lung carcinoma); [31]) of over 100 µM and an IC50 ([2]; Homo sapiens, HeLa) of over 100 µM.
Work on `CN(C)CCOc1ccc(CCCCc2ccc(OCCN(C)C)c(OCCN(C)C)c2)cc1OCCN(C)C` [Compound H, 1,4-bis{3,4-bis(2-(N,N′-dimethylamino)-ethoxy)phenyl}-butane] yielded a melting point of 65 to 67 °C, an IC50 (MCP-1) of 75 µM and an EC50 [1] of 30 to 40 µM. For the same compound, the IC50 (VEGF) was over 60 µM, the recovery at 90 min, 20 μM (in vitro [26]) was 96% and the IC50 (COS-7 cells; COS-7, read-out: COS-7 IC50) was 20 to 30 µM. The Papp B→A at 90 min, 20 μM ([27]; Caco-2, pH 7.4) was 10.1 ×10⁻⁶ cm/s, the Papp A→B at 90 min ([27]; Caco-2, pH 7.4, BCS permeability class, from A-B Papp in Caco-2 versus mannitol and propranolol) was over 14.2 ×10⁻⁶ cm/s and the Papp A→B at 90 min, 20 μM ([27]; Caco-2, pH 7.4, Papp A to B, Caco-2, nominal conc. 20 μM, 90 minutes, duplicate monolayers) was 66.7 ×10⁻⁶ cm/s. For the same compound, the efflux ratio at 90 min, 20 μM ([27]; Caco-2, pH 7.4, Polarization Ratio [B-A/A-B], Caco-2, nominal conc. 20 μM) was 0.1 to 0.2, the “Polarization Ratio [B-A/A-B]” value (Caco-2 cell monolayers [28]; Caco-2, nominal conc. 20 μM) was 0.15 and the “Papp A to B” value (Caco-2 cell monolayers [28]; [35]) was 64.4 ×10⁻⁶ cm/s. The “Papp B to A” value (Caco-2 cell monolayers [28]; [35]) was 10.1 ×10⁻⁶ cm/s, the “Mass Balance A to B” value (Caco-2 cell monolayers [28]; Caco-2, nominal conc. 20 μM, recovery from apical and basolateral chambers, duplicates) was “≧100%” and the IC50 (survivin) was about 25 µM. The DNA fragmentation [23] was “Positive”, the IC50 (A549 (lung carcinoma); [31]) was 20 to 40 µM and the IC50 ([2]; Homo sapiens, HeLa) was 20 to 30 µM.
For `COc1ccc(C[C@@H](C)[C@@H](C)Cc2ccc(OC)c(OC)c2)cc1OC` [Compound M4N, (tetra-O-methyl)nordihydroguaiaretic acid], the water solubility [29] is given as “poor”.
With `C[C@H]1O[C@@H](O[C@H]2[C@@H](O)C[C@H](O[C@H]3[C@@H](O)C[C@H](O[C@H]4CC[C@@]5(C)[C@H](CC[C@@H]6[C@@H]5C[C@@H](O)[C@]5(C)[C@@H](C7=CC(=O)OC7)CC[C@]65O)C4)O[C@@H]3C)O[C@@H]2C)C[C@H](O)[C@@H]1O` [digoxin, reference compound] the Papp A→B at 90 min, 5 μM ([27]; Caco-2, pH 7.4, Papp mean A to B, Caco-2, 5 μM, 90 minutes, pH 7.4) was 2.28 ×10⁻⁶ cm/s, the “Mass balance mean A to B” value (Caco-2 cell monolayers [28]; Caco-2, 5 μM, 90 minutes) was 73% and the “Mass balance mean B to A” value (Caco-2 cell monolayers [28]; Caco-2, 5 μM, 90 minutes) was 79%. The “Polarization Ratio mean (B-A/A-B)” value (Caco-2 cell monolayers [28]; Caco-2, 5 μM, 90 minutes) was 5.4 and the “Papp mean B to A” value (Caco-2 cell monolayers [28]; Caco-2, 5 μM, 90 minutes, pH 7.4) was 12.4 ×10⁻⁶ cm/s.
With `OC[C@@H](O)[C@@H](O)[C@H](O)[C@H](O)CO` [mannitol, reference compound] the Papp A→B at 90 min, 50 μM (in vitro [16]) was 0.514 ×10⁻⁶ cm/s and the “Mass balance mean A to B” value (Caco-2 cell monolayers [17]; human, Caco-2, 90 min, pH 7.4) was 96%.
For `CC(C)NCC(O)COc1cccc2ccccc12` (stereo not shown) [propranolol, reference compound], the Papp A→B at 90 min, 50 μM (in vitro [16]) is listed as 14.2 ×10⁻⁶ cm/s, the “Mass balance mean A to B” value (Caco-2 cell monolayers [17]; human, Caco-2, 90 min, pH 7.4) is listed as 71% and the “Papp historical range at the testing facility (mean ± SD)” value (Caco-2 cell monolayers [30]) is listed as 1.5×10^−5±4.2×10^−5.
